In one assay the test system is GST-Bcl-2. Briefly: TR-FRET binding assay, Bcl-2. The conditions noted are these: TR-FRET Ki values. In outline:
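Compounds serially diluted in DMSO from 50 μM (2× starting concentration, 10% DMSO), mixed with GST-tagged protein, F-Bak peptide probe and Tb-labeled antibody, incubated 3 h at room temperature.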

The subject of another assay is FL5.12/Bcl-2 cells. Put plainly: FL5.12/Bcl-2 cell viability assay. Format: cell-based, murine. The following applies: ratio of canine platelet EC50 to FL5.12/Bcl-2 EC50. An excerpt: FL5.12 is an IL-3 dependent prolymphocytic murine cell line that undergoes apoptosis upon IL-3 withdrawal as a result of the upregulation of pro-apoptotic Bcl-2 proteins such as Bim and Puma. Stable overexpression of anti-apoptotic Bcl-2 protein (FL5.12/Bcl-2) protects against apoptosis induced by IL-3 withdrawal by sequestration of Bim and Puma. […] The ability of compounds to kill FL5.12/Bcl-2 cells upon IL-3 withdrawal is a direct measure of the compounds' ability to inhibit anti-apoptotic Bcl-2 protein function.
Wild type FL5.12/Bcl-2 overexpressing stable transfectants were cultured in RPMI-1640 supplemented with 2 mM L-glutamine, 10% FBS, 1 mM sodium pyruvate, 2 mM HEPES, 1% penicillin/streptomycin (Invitrogen), 57 μM β-ME, and 10% WEHI-3B conditioned medium (source of IL-3) and maintained at 37° C. containing 5% CO2. 1×10^6 cells/ml were washed 1×PBS and resuspended in medium not supplemented with 10% WEHI-3B for 48 hrs prior to cytotoxicity assays. Cells were then treated for an additional 24 hrs in the presence of various concentrations of the indicated compounds. Cell viability was assessed by CellTitre Glo assay (Promega Corp.) according to the manufacturer's recommendations.

Each structure is given as a SMILES string.

For `O=C(NS(=O)(=O)c1ccc(NCC2CCOCC2)c([N+](=O)[O-])c1)c1ccc(N2CCN(Cc3ccccc3-c3ccc(Cl)cc3)CC2)cc1Oc1ccc2[nH]ccc2c1` [Example 40, 4-{4-[(4′-chloro-1,1′-biphenyl-2-yl)methyl]piperazin-1-yl}-2-(1H-indol-5-yloxy)-N-({3-nitro-4-[(tetrahydro-2H-pyran-4-ylmethyl)amino]phenyl}sulfonyl)benzamide], in the assay on GST-Bcl-2, the “Binding selectivity ratio (Bcl-XL Ki/Bcl-2 Ki)” value (shortened to “Binding selectivity ratio”) is above 1236.0. Further, in the assay with FL5.12/Bcl-2 cells, the “Selectivity Ratio (Platelet EC50/FL5.12/Bcl-2 EC50)” value is above 303.

In the case of `O=C(NS(=O)(=O)c1ccc(NCC2CCOCC2)c([N+](=O)[O-])c1)c1ccc(N2CCN(Cc3ccccc3-c3ccc(Cl)cc3)CC2)cc1Oc1cccc2[nH]ccc12` [Example 45, 4-{4-[(4′-chloro-1,1′-biphenyl-2-yl)methyl]piperazin-1-yl}-2-(1H-indol-4-yloxy)-N-({3-nitro-4-[(tetrahydro-2H-pyran-4-ylmethyl)amino]phenyl}sulfonyl)benzamide], the “Binding selectivity ratio” value with GST-Bcl-2 is given as above 797.1. The “Selectivity Ratio (Platelet EC50/FL5.12/Bcl-2 EC50)” value in the assay on FL5.12/Bcl-2 cells is recorded as above 360.

For the compound `CN(C)CCCNc1ccc(S(=O)(=O)NC(=O)c2ccc(N3CCN(Cc4ccccc4-c4ccc(Cl)cc4)CC3)cc2Oc2cccc3[nH]ccc23)cc1[N+](=O)[O-]` [Example 46, 4-{4-[(4′-chloro-1,1′-biphenyl-2-yl)methyl]piperazin-1-yl}-N-[(4-{[3-(dimethylamino)propyl]amino}-3-nitrophenyl)sulfonyl]-2-(1H-indol-4-yloxy)benzamide], in the assay on GST-Bcl-2, the “Binding selectivity ratio” value was determined as 119.2. The “Selectivity Ratio (Platelet EC50/FL5.12/Bcl-2 EC50)” value in the assay with FL5.12/Bcl-2 cells was 725.

On to `CC1(C)CCC(CN2CCN(c3ccc(C(=O)NS(=O)(=O)c4ccc(NCCCN5CCOCC5)c([N+](=O)[O-])c4)c(Oc4ccc5[nH]ccc5c4)c3)CC2)=C(c2ccc(Cl)cc2)C1` [Example 52, 4-(4-{[2-(4-chlorophenyl)-4,4-dimethylcyclohex-1-en-1-yl]methyl}piperazin-1-yl)-2-(1H-indol-5-yloxy)-N-({4-[(3-morpholin-4-ylpropyl)amino]-3-nitrophenyl}sulfonyl)benzamide], for which the “Binding selectivity ratio” value in the assay on GST-Bcl-2 stood at 333.9. For the same compound, the “Selectivity Ratio (Platelet EC50/FL5.12/Bcl-2 EC50)” value with FL5.12/Bcl-2 cells is above 3164.

For `CN(C)CCCNc1ccc(S(=O)(=O)NC(=O)c2ccc(N3CCN(CC4=C(c5ccc(Cl)cc5)CC(C)(C)CC4)CC3)cc2Oc2ccc3[nH]ccc3c2)cc1[N+](=O)[O-]` [Example 53, 4-(4-{[2-(4-chlorophenyl)-4,4-dimethylcyclohex-1-en-1-yl]methyl}piperazin-1-yl)-N-[(4-{[3-(dimethylamino)propyl]amino}-3-nitrophenyl)sulfonyl]-2-(1H-indol-5-yloxy)benzamide], in the assay with GST-Bcl-2, the “Binding selectivity ratio” value was 59.8. Further, the “Selectivity Ratio (Platelet EC50/FL5.12/Bcl-2 EC50)” value with FL5.12/Bcl-2 cells is listed as 1697.

For the compound `CC1(C)CCC(c2ccc(Cl)cc2)=C(CN2CCN(c3ccc(C(=O)NS(=O)(=O)c4ccc(NCCCN5CCOCC5)c([N+](=O)[O-])c4)c(Oc4cccc5[nH]ccc45)c3)CC2)C1` [Example 54, 4-(4-{[2-(4-chlorophenyl)-5,5-dimethylcyclohex-1-en-1-yl]methyl}piperazin-1-yl)-2-(1H-indol-4-yloxy)-N-({4-[(3-morpholin-4-ylpropyl)amino]-3-nitrophenyl}sulfonyl)benzamide], in the assay with GST-Bcl-2, the “Binding selectivity ratio” value amounted to 108.3. Also, the “Selectivity Ratio (Platelet EC50/FL5.12/Bcl-2 EC50)” value in the assay with FL5.12/Bcl-2 cells is listed as above 785.

As to `CC1(C)CCC(CN2CCN(c3ccc(C(=O)NS(=O)(=O)c4ccc(NCCCN5CCOCC5)c([N+](=O)[O-])c4)c(Oc4cccc5[nH]ccc45)c3)CC2)=C(c2ccc(Cl)cc2)C1` [Example 55, 4-(4-{[2-(4-chlorophenyl)-4,4-dimethylcyclohex-1-en-1-yl]methyl}piperazin-1-yl)-2-(1H-indol-4-yloxy)-N-({4-[(3-morpholin-4-ylpropyl)amino]-3-nitrophenyl}sulfonyl)benzamide], the “Binding selectivity ratio” value with GST-Bcl-2 was 126.9. Besides, the “Selectivity Ratio (Platelet EC50/FL5.12/Bcl-2 EC50)” value with FL5.12/Bcl-2 cells was 1614.

On to `CN(C)CCCNc1ccc(S(=O)(=O)NC(=O)c2ccc(N3CCN(CC4=C(c5ccc(Cl)cc5)CCC(C)(C)C4)CC3)cc2Oc2cccc3[nH]ccc23)cc1[N+](=O)[O-]` [Example 56, 4-(4-{[2-(4-chlorophenyl)-5,5-dimethylcyclohex-1-en-1-yl]methyl}piperazin-1-yl)-N-[(4-{[3-(dimethylamino)propyl]amino}-3-nitrophenyl)sulfonyl]-2-(1H-indol-4-yloxy)benzamide], for which the “Binding selectivity ratio” value with GST-Bcl-2 worked out at 48.2. Besides, in the assay with FL5.12/Bcl-2 cells, the “Selectivity Ratio (Platelet EC50/FL5.12/Bcl-2 EC50)” value was 554.

For `CN(C)CCCNc1ccc(S(=O)(=O)NC(=O)c2ccc(N3CCN(CC4=C(c5ccc(Cl)cc5)CC(C)(C)CC4)CC3)cc2Oc2cccc3[nH]ccc23)cc1[N+](=O)[O-]` [Example 57, 4-(4-{[2-(4-chlorophenyl)-4,4-dimethylcyclohex-1-en-1-yl]methyl}piperazin-1-yl)-N-[(4-{[3-(dimethylamino)propyl]amino}-3-nitrophenyl)sulfonyl]-2-(1H-indol-4-yloxy)benzamide], the “Binding selectivity ratio” value in the assay with GST-Bcl-2 was 68.7. Besides, in the assay with FL5.12/Bcl-2 cells, the “Selectivity Ratio (Platelet EC50/FL5.12/Bcl-2 EC50)” value stood at 1077.

In the case of `COc1ccc(C2=C(CN3CCN(c4ccc(C(=O)NS(=O)(=O)c5ccc(NCCCN6CCCC6)c([N+](=O)[O-])c5)c(Oc5cccc6[nH]ccc56)c4)CC3)CCC(C)(C)C2)cc1` [Example 68, 2-(1H-indol-4-yloxy)-4-(4-{[2-(4-methoxyphenyl)-4,4-dimethylcyclohex-1-en-1-yl]methyl}piperazin-1-yl)-N-({3-nitro-4-[(3-pyrrolidin-1-ylpropyl)amino]phenyl}sulfonyl)benzamide], the “Binding selectivity ratio” value in the assay with GST-Bcl-2 is reported as 11.4. For the same compound, the “Selectivity Ratio (Platelet EC50/FL5.12/Bcl-2 EC50)” value in the assay on FL5.12/Bcl-2 cells is on record as above 1144.

On to `CC1(C)CCC(CN2CCN(c3ccc(C(=O)NS(=O)(=O)c4ccc(NCCCN5CCCC5)c([N+](=O)[O-])c4)c(Oc4cccc5[nH]ccc45)c3)CC2)=C(c2ccc(C(F)(F)F)cc2)C1` [Example 69, 4-[4-({4,4-dimethyl-2-[4-(trifluoromethyl)phenyl]cyclohex-1-en-1-yl}methyl)piperazin-1-yl]-2-(1H-indol-4-yloxy)-N-({3-nitro-4-[(3-pyrrolidin-1-ylpropyl)amino]phenyl}sulfonyl)benzamide], for which the “Binding selectivity ratio” value in the assay on GST-Bcl-2 turned out to be 74. In the assay with FL5.12/Bcl-2 cells, the “Selectivity Ratio (Platelet EC50/FL5.12/Bcl-2 EC50)” value is reported as above 666.

Turning to `CC1(C)CCC(CN2CCN(c3ccc(C(=O)NS(=O)(=O)c4ccc(NCCCN5CCCC5)c([N+](=O)[O-])c4)c(Oc4cccc5[nH]ccc45)c3)CC2)=C(c2ccc(OC(F)(F)F)cc2)C1` [Example 70, 4-[4-({4,4-dimethyl-2-[4-(trifluoromethoxy)phenyl]cyclohex-1-en-1-yl}methyl)piperazin-1-yl]-2-(1H-indol-4-yloxy)-N-({3-nitro-4-[(3-pyrrolidin-1-ylpropyl)amino]phenyl}sulfonyl)benzamide], the “Binding selectivity ratio” value in the assay with GST-Bcl-2 is reported as 62.4. For the same compound, in the assay on FL5.12/Bcl-2 cells, the “Selectivity Ratio (Platelet EC50/FL5.12/Bcl-2 EC50)” value is given as above 450.

`CC1(C)CCC(CN2CCN(c3ccc(C(=O)NS(=O)(=O)c4ccc(NCCCN5CCCC5)c([N+](=O)[O-])c4)c(Oc4cccc5[nH]ccc45)c3)CC2)=C(c2cccc(C(F)(F)F)c2)C1` [Example 71, 4-[4-({4,4-dimethyl-2-[3-(trifluoromethyl)phenyl]cyclohex-1-en-1-yl}methyl)piperazin-1-yl]-2-(1H-indol-4-yloxy)-N-({3-nitro-4-[(3-pyrrolidin-1-ylpropyl)amino]phenyl}sulfonyl)benzamide]: the “Binding selectivity ratio” value with GST-Bcl-2 is recorded as above 105.9. In addition, the “Selectivity Ratio (Platelet EC50/FL5.12/Bcl-2 EC50)” value with FL5.12/Bcl-2 cells is on record as above 107.

As to `CC1(C)CCC(CN2CCN(c3ccc(C(=O)NS(=O)(=O)c4ccc(NCCCN5CCCC5)c([N+](=O)[O-])c4)c(Oc4cccc5[nH]ccc45)c3)CC2)=C(c2cccc(F)c2)C1` [Example 72, 4-(4-{[2-(3-fluorophenyl)-4,4-dimethylcyclohex-1-en-1-yl]methyl}piperazin-1-yl)-2-(1H-indol-4-yloxy)-N-({3-nitro-4-[(3-pyrrolidin-1-ylpropyl)amino]phenyl}sulfonyl)benzamide], the “Binding selectivity ratio” value in the assay with GST-Bcl-2 amounted to 17.3. For the same compound, the “Selectivity Ratio (Platelet EC50/FL5.12/Bcl-2 EC50)” value in the assay on FL5.12/Bcl-2 cells is recorded as above 325.

With `CC1(C)CCC(CN2CCN(c3ccc(C(=O)NS(=O)(=O)c4ccc(NCCCN5CCCC5)c([N+](=O)[O-])c4)c(Oc4cccc5[nH]ccc45)c3)CC2)=C(c2ccc(F)cc2)C1` [Example 73, 4-(4-{[2-(4-fluorophenyl)-4,4-dimethylcyclohex-1-en-1-yl]methyl}piperazin-1-yl)-2-(1H-indol-4-yloxy)-N-({3-nitro-4-[(3-pyrrolidin-1-ylpropyl)amino]phenyl}sulfonyl)benzamide], in the assay on GST-Bcl-2, the “Binding selectivity ratio” value is given as 9.9. For the same compound, the “Selectivity Ratio (Platelet EC50/FL5.12/Bcl-2 EC50)” value in the assay with FL5.12/Bcl-2 cells was determined as 166.

Source of the values: US9125913B2, “Bcl-2-selective apoptosis-inducing agents for the treatment of cancer and immune diseases” (AbbVie Inc., priority 2008, dated 2015).
